From article PMC5740082, “Identification of a CARM1 Inhibitor with Potent In Vitro and In Vivo Activity in Preclinical Models of Multiple Myeloma” (Scientific Reports, 2017)
Read-outs that look alike come from different tables or passages of the source.

What was measured:
CARM1 = molecular target: T1, CARM1 (Homo sapiens, UniProt Q86X55); assay: CARM1 histone methyltransferase (biochemical) assay; conditions: for IC50: 30 min preincubation, IC50 measured at 120 minutes
T1 construct: FLAG-CARM1 (amino acids 2–585)-His for biochemical studies was expressed in 293 F mammalian cells; made in house; host or cells: 293F mammalian cells
T1 sequence (Q86X55 2-585 isoform Q86X55-1): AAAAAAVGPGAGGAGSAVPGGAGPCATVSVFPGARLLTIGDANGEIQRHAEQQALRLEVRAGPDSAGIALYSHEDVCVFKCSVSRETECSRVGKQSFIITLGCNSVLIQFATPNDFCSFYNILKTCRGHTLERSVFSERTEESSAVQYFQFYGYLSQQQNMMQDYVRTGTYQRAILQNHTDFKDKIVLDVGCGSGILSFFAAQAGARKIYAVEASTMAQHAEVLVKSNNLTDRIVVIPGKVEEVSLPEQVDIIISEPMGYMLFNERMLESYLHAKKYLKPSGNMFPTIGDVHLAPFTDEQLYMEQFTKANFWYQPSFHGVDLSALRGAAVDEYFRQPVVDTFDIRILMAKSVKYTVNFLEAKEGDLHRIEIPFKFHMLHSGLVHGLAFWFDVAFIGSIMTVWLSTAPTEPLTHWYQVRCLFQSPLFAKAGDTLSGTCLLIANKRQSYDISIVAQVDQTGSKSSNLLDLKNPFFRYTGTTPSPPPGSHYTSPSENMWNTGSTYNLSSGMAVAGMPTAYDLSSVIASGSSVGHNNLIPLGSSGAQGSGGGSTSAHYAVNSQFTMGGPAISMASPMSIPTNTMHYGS
Method: CARM1 activity was measured as previously reported for the histone methyltransferases PRMT1/6/8[65] and PRMT5[58]. Briefly, CARM1 was preincubated with compounds for 30 minutes at room temperature before reactions were initiated. […] The assays were quenched by the addition of 300 μM unlabeled SAM. The quantity of ^3H-labeled peptide produced was measured by Flashplate on a Topcount reader. Further details can be found in the Supplementary Methods.
Histone methyltransferase assay
The compounds were preincubated with CARM1 for 30 minutes at room temperature before the reactions were initiated by the addition of substrates. […]
containing 20 mM bicine, 1 mM tris(2-carbox yethyl)phosphine, 0.005% bovine skin gelatin and 0.002% Tween-20, pH 7.5 and 2% DMSO. The peptide sequence was biotin-aminohexanoate- […]
eKS AP-amide, where RMe is a monomethylated arginine residue (21st
Century Biochemicals, Marlboro, MA). After 2 hours, assa ys were quenched b y the addition of 300 μM unlabeled SAM. The reactions were tran sferred to a 384-well Flashplate (Perkin Elmer) and the biotinylated peptides were allowed to bind to the streptavidin surface for at least 1 hour before being washed once with 0.1% Tween 20. The quantit y of 3H-labeled peptide bound to the Flashplate surface was counted on a Topcount reader as counts per minute (cpm). % Inhibition values wer e calculated and IC50 values were fit using the 3 -param eter IC50 equation below:
YY = BBBBBBBBBBBB + (100 − BBBBBBBBBBBB )HHHHHHHH CCCCCCCCCCHHCCHHCCCCCC where top is fixed at 100 or the maximum inhibition plateau , Y is % inhibition and X is […]
IC50 vs [peptide] data were fit to the noncom petitive Cheng- Prusoff […]
The effect of reaction time on compound potency was determined b y meas uring IC50 values from […]
to a one phase exponential deca y equation. […]
activity was measured under standard conditions after a 30 minute preincubation.
IC 50 values were d etermi ned and data wer e anal yz ed using the following eq uation: […]

[1] = test system: asymmetric di-methyl PABP1 in RKO cells; assay: In cell western (ICW) assay for asymmetric di-methyl PABP1; conditions: Homo sapiens, 48 h, read-out: CARM1 ICW IC50
Method: In cell w estern assay f or detection of asymmetric di -methyl PABP1 an d DNA content RKO cells (ATCC) were maintained in growth medium (DMEM/Glutamax medium supplemented with 10% v/v heat inactivated fetal bovine serum and 100 units/mL penicillin-streptom ycin) and cultured at 37 °C under 5% CO2. Cells were seeded in assay medium at a concentration of 30,000 cells per m L to a pol y -D-l ys ine coated 384 well culture plate with 50 µ L per well. Compound (100 nL) from a 96-well sou rce plate was add ed directl y to 384 well cell plate. Plates were incubated at 37°C, 5% CO2 for 48 hours. After two da ys of incubation, plates were brought to room temperature outside of the incubator for ten minutes and blotted on paper towels to remove cell media. Cells were fixed for 20 minutes atroom temperature b y adding 50 µl of 8% PFA followed by aspiration of supernatant. Cells were then permeabilized by addition of 50 µ L of i ce cold 100% methanol directl y to each well and incubated for 30 min at room temperature. After 30 min, plates were washed 2 times with 100 µL per well of wash buffer (1X PBS). Next 60 µL per well of Odysse y blocking buffer (Od ysse y Buffer wi th 0.1% Tween 20 (v/v)) were added to each plate and incubat ed 1 hour at room temperature. Blocking buffer was removed and 20 µ L per well of primar y antibod y was added (as ymmetric-methyl PABP1) diluted 1:400 in Odysse y buffer with 0.1% Tween 20 (v/v)) and plates were incubated overni ght (16 hours) at 4°C. Plates were washed 5 times wit h 100 µ L per well of wash buffer. Next 20 µL per well of secondar y ant ibody was added (1:800 800CW goat anti-rabbit IgG (H+L) antibod y, 1:2000 DRAQ5 in Odyss ey buffer with 0.1% Tween 20 (v/v)) and incubated for 1 hour at room temperature. The plates were washed 5 times wit h 100 µ L per well wash buffer then 2 times with 100 µ L per well of w ater . Plates were allowed to dr y at room temper ature t hen imag ed on the Lico r Od ysse y machine. The ratio of as ymmetri c di-methyl PABP1 to DR AQ5 was det ermined for each well and then used to determine percent i nhibition relative to DMSO control. IC 50 curves were generated us ing triplicate wells per concentration of compound.

[2] = test system: 20 other diverse HMTs in the Epizyme enzyme panel; assay: Methyltransferase cross screening panel
[3] = Pharmacokinetic profiles in mice and rats; assay type: in vivo
[4] = test system: PABP1, SmB, aDMA and histone H3 methylation in RPMI-8226 cells; assay: Western blot of cellular methyl marks, RPMI-8226; assay type: cell-based, human; conditions: for IC50: Homo sapiens
[5] = read-out: CARM1 Biochemical IC50

Row | SMILES | IC50 (CARM1; read-out: CARM1 IC50) | IC50 [1] | fold more potent against CARM1 than compound 1 (CARM1) | IC50 (CARM1; [5]) | selectivity for CARM1 over 20 other diverse HMTs [2] | pharmacokinetic profiles [3] | biochemical potency against CARM1 compared with EZM2302 (CARM1) | IC50 ([4]; 96 h, RPMI-8226, four days, 0.0003 to 5 µM, read-out: IC50, SmBme0) | IC50 ([4]; RPMI-8226, 96 h treatment, read-out: IC50, methylation of PABP1 (PABP1me2a)) | changes in methylation ([4]; RPMI-8226, four days)
1 | Cn1cnc2ccc(-c3cccc(OCC(O)CN)c3)nc21 (stereo not drawn) [Compound 1] | 2300 ± 800 nM | > 20000 nM |  |  |  |  |  |  |  | 
2 | CC(C)n1ncc2c(N3CCOCC3)cc(-c3cccc(OCC(O)CN)c3)nc21 (stereo not drawn) [Compound 2] |  | 19000 nM | 50 fold | 46 ± 9 nM | more than 100 fold |  |  |  |  | 
3 | CNC[C@@H](O)COc1ccc(Cl)c(-c2nc(-c3c(C)noc3C)c(C)c(N3Cc4cnc(N5CCC5)nc4C3)n2)c1 [EPZ025654] |  | 11 nM |  | 3 nM |  | without satisfactory pharmacokinetic profiles |  |  |  | 
4 | CNC[C@@H](O)COc1cc(-c2nc(-c3c(C)noc3C)c(C)c(N3CC4(CCN(C(=O)OC)CC4)C3)n2)ccc1Cl [EPZ029751, methyl 2-(2-(4-chloro-3-((R)-2-hydroxy-3-(methylamino)propoxy)phenyl)-6-(3,5-dimethylisoxazol-4-yl)-5-methylpyrimidin-4-yl)-2,7-diazaspiro[3.5]nonane-7-carboxylate] |  | > 6500 nM |  | > 1000 nM |  |  | much weaker biochemical potency | > 5000 nM | > 5000 nM | No robust changes in methylation
